Test results taken from paper PMC9098178, “SAR of Novel 3-Arylisoquinolinones: meta-Substitution on the Aryl Ring Dramatically Enhances Antiproliferative Activity through Binding to Microtubules” (Journal of Medicinal Chemistry, 2022).
Like-named read-outs stand apart in the source and are kept apart here.

Columns and labels:
SNU423 = assay: SRB antiproliferative assay, SNU423; format: cell-based, human; settings: Homo sapiens
Experimental: (§1) In light of this substantial change in activity between the meta and para compounds, a more comprehensive analysis of the antiproliferative activity was performed for the meta-/para-3-arylisoquinolinone pairs 2 and 3, 4, and 5, as well as 6. A panel of breast (MDA-MB-231), liver (HepG2, SNU423), lung (A549), and colon (HCT116) cancer cell lines were treated with the five 3-arylisoquinolinone analogs for 96 h followed by the SRB assay. The dose–response curves (including those for MCF-7) are presented in Figure S22, and their relevant IC50 values are listed in Table 1. […] The differential activity between meta- and para-3-arylisoquinolinones was reproduced in the National Cancer Institute (NCI) one-dose screen using a panel of 59 cancer cell lines (Figure S23).
All cell lines used in the study were human-derived and purchased from ATCC (Manassas, USA). Breast adenocarcinoma MCF-7 and MDA-MB-231 cell lines were cultured in DMEM. Hepatocellular carcinoma HepG2 and SNU423 cell lines were grown in MEME combined with 1% (v/v) nonessential amino acids and RPMI supplemented with 2 mM glutamine, respectively. Lung adenocarcinoma A549 and colorectal carcinoma HCT116 cells were grown in RPMI (+2 mM glutamine). All previous media were further supplemented with 10% heat-inactivated fetal bovine serum. The immortalized, normal liver THLE-3 cells were grown in BEGM (Lonza, Cat# CC-3170) onto precoated vessels according to ATCC’s instructions. Human umbilical vein endothelial cells (HUVECs) were cultured in EGM-2 (Lonza, Cat# CC-3162). All of the cells were maintained at 37 °C and 5% CO2 in a humidified incubator.
Screening of the antiproliferative activity of 3-arylisoquinolinones was performed using the SRB assay as previously described.[56] Exponentially growing HepG2, SNU423, MDA-MB-231, MCF-7, A549, HCT116, THLE-3, and HUVECs were seeded in 96-well plates at densities of 3000, 2000, 1500, 2500, 1000, 1000, 4000, and 4000 cells/well, respectively. These densities were experimentally selected so that the DMSO-treated cells (control) were approximately 80–90% confluent at the assay’s endpoint, and their optical density (OD) values fell within the assay’s linear range. […] After treatment, cell monolayers were fixed with 10% (w/v) trichloroacetic acid for 1 h at 4 °C, washed, and dried. Then, the cells were exposed to 0.4% (w/v) SRB dye (prepared in 1% (v/v) acetic acid; Botium, Cat# 80100) for 15 min followed by several 1% acetic acid washing and then drying. Finally, the cellular protein-bound SRB was thoroughly dissolved in 10 mM Tris base, and the OD values were read at 510 nm using a plate reader (μQuant Microplate Spectrophotometer, Biotek, U.K.) coupled with Gen5 software (BioTek, U.K.). Compound-induced changes in cell growth were inferred from changes in OD values. Cell growth was calculated using the following formula: cell growth (%) = (ODtest/ODcontrol) × 100.

HepG2 cells = assay: Clonogenic assay; format: cell-based, human; settings: 14 days
Experimental: HepG2 cells were treated with varying concentrations of 2–6 added once and kept for 14 days before counting colonies and calculating surviving fraction (Figure 2).
The ability of potential anticancer agents to prevent unlimited cell division and induce reproductive cell death was assessed using clonogenic assay as previously described.[57] In brief, HepG2 cells were seeded into six-well plates at a density of 1000 single cells/well and incubated for 10–12 h to adhere. The cells were then treated with DMSO (control) or a range of concentrations of 2–6 for 14 days. Afterward, the produced colonies were washed with phosphate-buffered saline (PBS), fixed with 70% ethanol for 20 min, and stained with 0.5% (w/v) methylene blue (prepared in 70% methanol). Following washing with water and drying, colonies (≥50 cells) were manually counted. The colony-forming efficiency (CFE) of cells was calculated by dividing the number of colonies formed by the number of cells seeded for each condition. The surviving fraction was determined by dividing the CFE of the treated cells by CFE of the control cells. A survival curve was generated by plotting the log of drug concentrations versus surviving fraction.

[1] = system: panel of 59 cancer cell lines; assay: NCI one-dose screen; format: cell-based; settings: 10 µM, 48 h, SRB
Experimental: as §1
Figure S23. NCI One-Dose Mean graphs for 3-arylisoquinolinones 4, 5 […]
In NCI one-dose screen, the 59 cell lines (classified into 9 groups) were exposed to 4, 5 and 7 at a single dose of 10 µM for 48 h followed by SRB assay. The one-dose data were reported as a mean graph of the growth percentage of treated cells, as relative to the cell number of both the no-drug control and the zero time (before adding the test agent). Values between 0 and 100 indicate growth inhibition, whereas values less than 0 indicate lethality. For instance, a value of 40 means 60% growth inhibition; 0, no growth throughout the experiment; -40, 40% lethality; and - 100, all cells are dead.1
A) One-dose mean graph for 3-arylisoquinolinone 4 (NSC number 795055)

HUVECs [2] = assay: Endothelial cell tube formation assay; format: cell-based, human; settings: 16 h, Matrigel
Experimental: (§2) Moreover, networks of HUVEC-based tubes were exposed for 16 h to different concentrations of 4 and 5 to assess their potential tube disruptive effects (Figure 8B). […] The disruption was more pronounced at 1 and 2 μM of 4, as evidenced by a decrease in tube junctions and formation of short distorted tubes.
(§3) Matrigel (Corning, Cat# 356237) was gently added into 96-well plates at a volume of 70 μL/well and allowed to gel at 37 °C for 30 min. A mixture of HUVECs (25 × 10^3) and DMSO, 4 (0.5, 1, 2 μM), or 5 (25 μM) was then dispensed over the gels and incubated for 16 h. Next, the wells were filled with PBS and covered with a coverslip to diminish the meniscus effect, allowing proper examination of the endothelial tube networks under a light microscope (Optika XDS-3, Italy). Bright-field images of 4x magnification were captured and then processed using Fiji ImageJ software. For the assessment of endothelial tube disruption, HUVECs at a density of 25 × 10^3 cells/well were seeded onto Matrigel and incubated for 4 h to align into tubes. The cells were then treated with DMSO, 4, or 5 for 16 h prior to the microscopic examination as mentioned above.

HUVECs [3] = assay: Endothelial tube disruption assay; format: cell-based, human; settings: 16 h treatment after 4 h tube formation; concentration-dependent, more pronounced at 1 and 2 μM of 4
Experimental: as §2, §3

[4] = SNU-423, 96 h treatment, mean ± SEM, read-out: IC50 SNU423

SMILES | IC50 (SNU423; [4]) [nM] | surviving fraction (HepG2 cells; concentrations as high as 20 μM) | inhibition of growth in NCI one-dose screen [1] | effect on capillary-like tube formation (HUVECs [2]; 25 μM) | disruption of preestablished capillary-like tubes (HUVECs [3]) | IC50 (SNU423; SNU-423, 24 h +drug/72 h –drug treatment, read-out: mean IC50 ± SEM, SNU423) [nM] | colony formation (HepG2 cells; 0.5 or 1 μM) | effect on capillary-like tube formation (HUVECs [2]; 2 μM)
O=c1[nH]c(-c2ccc(F)cc2)cc2cc(F)ccc12 [compound 5, 6-Fluoro-3-(4-fluorophenyl)isoquinolin-1(2H)-one] | > 50000 | 0.5 | less active | did not significantly affect the process of tube formation | not observed | – | – | –
O=c1[nH]c(-c2cccc(F)c2)cc2cc(F)ccc12 [compound 4, 6-Fluoro-3-(3-fluorophenyl)isoquinolin-1(2H)-one] | 250 ± 30 | – | far more potent in the inhibition of growth of many of the cell lines | – | able to disrupt the preestablished capillary-like tubes | 360 ± 10 | No colonies were apparent | markedly suppressed tube formation
